Measurements published in US9328374B2, “Selective culture medium and method for detecting carbapenem-resistant bacteria in a test sample” (Institut National de la Sante et de la Recherche Medicale …, priority 2011, dated 2016).

Tested on: E. coli
Assay: MIC of imipenem, ertapenem and meropenem
Format: cell-based, Escherichia coli

`C[C@@H](O)[C@H]1C(=O)N2C(C(=O)O)=C(S[C@@H]3CN[C@H](C(=O)N(C)C)C3)[C@H](C)[C@H]12` [MEM, meropenem] gave an MIC (E. coli 1008 (TEM-1 + CTX-M-1)) of 0.016 µg/mL, an MIC (E. coli 1008, CTX-M-1 + TEM-1, non-carbapenemase producer) of 0.016 µg/mL and an MIC (E. coli 1020, CTX-M-1 + TEM-1, non-carbapenemase producer) of 0.016 µg/mL. It also gave an MIC (E. coli 1023, CTX-M-2 + TEM-1, non-carbapenemase producer) of 0.016 µg/mL, an MIC (E. coli 1033, CTX-M-15, non-carbapenemase producer) of 0.016 µg/mL and an MIC (E. coli 1034 (TEM-1 + SHV-38)) of 0.016 µg/mL. It also gave an MIC (E. coli 1034, TEM-1 + SHV-38, non-carbapenemase producer) of 0.016 µg/mL, an MIC (E. coli 1048 (TEM-1 + SHV-2a)) of 0.016 µg/mL and an MIC (E. coli 1048, TEM-1 + SHV-2a, non-carbapenemase producer) of 0.016 µg/mL. For the same compound, the MIC (E. coli 1082 (TEM-1)) was 0.016 µg/mL, the MIC (E. coli 1082, TEM-1, non-carbapenemase producer) was 0.016 µg/mL and the MIC (E. coli 1092 (OXA-1)) was 0.023 µg/mL. The MIC (E. coli 1092, OXA-1, non-carbapenemase producer) was 0.023 µg/mL, the MIC (E. coli 6252, (wild type), non-carbapenemase producer) was 0.008 µg/mL and the MIC (E. coli 6367 (wild type)) was 0.012 µg/mL. It also gave an MIC (E. coli 6367, (wild type), non-carbapenemase producer) of 0.012 µg/mL, an MIC (E. coli 10121 (CTX-M-2)) of 0.016 µg/mL and an MIC (E. coli 10121, CTX-M-2, non-carbapenemase producer) of 0.016 µg/mL. It also gave an MIC (E. coli 10122, CTX-M-1 + TEM-1, non-carbapenemase producer) of 0.016 µg/mL, an MIC (E. coli 0404018, VIM-1+ CMY-6) of 1 µg/mL and an MIC (E. coli 1008077, VIM-1+ TEM-1 + CTX-M-15) of 4 µg/mL. For the same compound, the MIC (E. coli 1108013, IMP-1 + TEM-1) was 1 µg/mL, the MIC (E. coli ALL (NDM-1 + OXA-1 + OXA-2 + CTX-M-15 + TEM-1)) was 8 µg/mL and the MIC (E. coli ALL, NDM-1 + TEM-1 + CTX-M-15 + OXA-1 + OXA-2) was 8 µg/mL. It also gave an MIC (E. coli AME (OXA-48 + CTX-M-24)) of 0.19 µg/mL, an MIC (E. coli AME, OXA-48 + CTX-M-24) of 0.19 µg/mL and an MIC (E. coli AUS (NDM-1 + CTX-M-15 + TEM-1)) of 16 µg/mL. The MIC (E. coli AUS, NDM-1 + TEM-1 + CTX-M-15) was 16 µg/mL, the MIC (E. coli BER (OXA-48 + CTX-M-15)) was 0.19 µg/mL and the MIC (E. coli BER, OXA-48 + TEM-1 + CTX-M-15) was 0.19 µg/mL. It also gave an MIC (E. coli BOK (OXA-48 + CTX-M-15)) of 0.19 µg/mL, an MIC (E. coli BOK, OXA-48 + CTX-M-15) of 0.19 µg/mL and an MIC (E. coli BON (OXA-48 + CTX-M-24 + TEM-1)) of 0.19 µg/mL. The MIC (E. coli BON, OXA-48 + TEM-1 + CTX-M-24) was 0.19 µg/mL, the MIC (E. coli BOU (OXA-48 + CTX-M-15)) was 0.125 µg/mL and the MIC (E. coli BOU, OXA-48 + CTX-M-15) was 0.125 µg/mL. It also gave an MIC (E. coli COL (KPC-2)) of 2 µg/mL, an MIC (E. coli COL, KPC-2 + TEM-1 + CTX-M-9) of 2 µg/mL and an MIC (E. coli DIH (VIM-19)) of 4 µg/mL. It also gave an MIC (E. coli DIH, VIM-19) of 4 µg/mL, an MIC (E. coli DIN, KPC-2 + TEM-1 + OXA-1) of 0.5 µg/mL and an MIC (E. coli E14 (CTX-M-14)) of 0.12 µg/mL. For the same compound, the MIC (E. coli E14, CTX-M-14, non-carbapenemase producer) was 0.012 µg/mL, the MIC (E. coli ECA, ACC-1, non-carbapenemase producer) was 0.012 µg/mL and the MIC (E. coli EVB, VEB-1, non-carbapenemase producer) was 0.012 µg/mL. For the same compound, the MIC (E. coli FOR, CTX-M-15, non-carbapenemase producer) was 0.012 µg/mL, the MIC (E. coli GEN (NDM-1 + OXA-1 + CMY-30 + TEM-1)) was 12 µg/mL and the MIC (E. coli GEN, NDM-1 + TEM-1 + CMY-30 + OXA-1) was 12 µg/mL. The MIC (E. coli GOG (OXA-48 + CTX-M-24)) was 0.25 µg/mL, the MIC (E. coli GUE (NDM-1 + OXA-1 + TEM-1)) was 2 µg/mL and the MIC (E. coli GUE, NDM-1 + TEM-1 + OXA-1) was 2 µg/mL. It also gave an MIC (E. coli HAN (OXA-48 + CTX-M-15)) of 1 µg/mL, an MIC (E. coli HAN, OXA-48 + CTX-M-15) of 1 µg/mL and an MIC (E. coli HB4 (OmpC-, OmpF-)) of 0.25 µg/mL. It also gave an MIC (E. coli HB4, (OmpC-, OmpF-), non-carbapenemase producer, porin deficiency) of 0.25 µg/mL, an MIC (E. coli IR5 (NDM-1 + CTX-M-15 + TEM-1)) of 16 µg/mL and an MIC (E. coli IR5, NDM-1 + TEM-1 + CTX-M-15) of 16 µg/mL. It also gave an MIC (E. coli JAP (IMP-1)) of 0.5 µg/mL, an MIC (E. coli JAP, IMP-1) of 0.5 µg/mL and an MIC (E. coli LIL, KPC-2 + TEM-1 + OXA-9) of 1 µg/mL. The MIC (E. coli MAD (VIM-1 + CTX-M-3)) was 0.5 µg/mL, the MIC (E. coli MAD, VIM-1+ CTX-M-3) was 0.5 µg/mL and the MIC (E. coli MAR (Overexpressed AmpC)) was 2 µg/mL. The MIC (E. coli MAR, Overexpressed AmpC, non-carbapenemase producer) was 2 µg/mL, the MIC (E. coli MET, Chromosome-encoded extended-spectrum cephalosporinase, non-carbapenemase producer) was 0.012 µg/mL and the MIC (E. coli NAA (OXA-48 + CTX-M-24)) was 0.25 µg/mL. The MIC (E. coli OM3, OXA-48 + TEM-1 + CTX-M-15) was 0.38 µg/mL, the MIC (E. coli OM20, NDM-1 + TEM-1 + CTX-M-15) was 8 µg/mL and the MIC (E. coli OM22, OXA-48 + TEM-1 + CTX-M-15) was 0.25 µg/mL. The MIC (E. coli PSP (KPC-2)) was 0.5 µg/mL, the MIC (E. coli PSP, KPC-2 + TEM-1 + OXA-1) was 0.5 µg/mL and the MIC (E. coli RIC (NDM-1 + OXA-1 + OXA-10 + CMY-16)) was 1 µg/mL. The MIC (E. coli RIC, NDM-1 + CMY-16 + OXA-1 + OXA-10) was 1 µg/mL, the MIC (E. coli ROB (OXA-48)) was 0.25 µg/mL and the MIC (E. coli ROB, OXA-48) was 0.25 µg/mL. The MIC (E. coli SYD, CMY-2, non-carbapenemase producer) was 0.012 µg/mL, the MIC (E. coli TWA, IMP-8 + SHV-12) was 3 µg/mL and the MIC (E. coli ZAN, OXA-48 + TEM-1 + CTX-M-14) was 0.75 µg/mL. For the same compound, the MIC (strain E. coli 1008, TEM-1 + CTX-M-1, non-carbapenemase producer) was 0.016 µg/mL, the MIC (strain E. coli 1034, TEM-1 + SHV-38, non-carbapenemase producer) was 0.016 µg/mL and the MIC (strain E. coli 1048, TEM-1 + SHV-2a, non-carbapenemase producer) was 0.016 µg/mL. The MIC (strain E. coli 10121, CTX-M-2, non-carbapenemase producer) was 0.016 µg/mL, the MIC (strain E. coli AME, OXA-48 + CTX-M-24) was 0.19 µg/mL and the MIC (strain E. coli BON, OXA-48 + TEM-1 + CTX-M-24) was 0.19 µg/mL. The MIC (strain E. coli ECA, ACC-1, non-carbapenemase producer) was 0.012 µg/mL, the MIC (strain E. coli EVB, VEB-1, non-carbapenemase producer) was 0.012 µg/mL and the MIC (strain E. coli FOR, CTX-M-15, non-carbapenemase producer) was 0.012 µg/mL.
